In this test the target is AChE (Homo sapiens, UniProt P22303). Type of test: biochemical. The settings on record: result in words.
Sequence of AChE (P22303 32-614): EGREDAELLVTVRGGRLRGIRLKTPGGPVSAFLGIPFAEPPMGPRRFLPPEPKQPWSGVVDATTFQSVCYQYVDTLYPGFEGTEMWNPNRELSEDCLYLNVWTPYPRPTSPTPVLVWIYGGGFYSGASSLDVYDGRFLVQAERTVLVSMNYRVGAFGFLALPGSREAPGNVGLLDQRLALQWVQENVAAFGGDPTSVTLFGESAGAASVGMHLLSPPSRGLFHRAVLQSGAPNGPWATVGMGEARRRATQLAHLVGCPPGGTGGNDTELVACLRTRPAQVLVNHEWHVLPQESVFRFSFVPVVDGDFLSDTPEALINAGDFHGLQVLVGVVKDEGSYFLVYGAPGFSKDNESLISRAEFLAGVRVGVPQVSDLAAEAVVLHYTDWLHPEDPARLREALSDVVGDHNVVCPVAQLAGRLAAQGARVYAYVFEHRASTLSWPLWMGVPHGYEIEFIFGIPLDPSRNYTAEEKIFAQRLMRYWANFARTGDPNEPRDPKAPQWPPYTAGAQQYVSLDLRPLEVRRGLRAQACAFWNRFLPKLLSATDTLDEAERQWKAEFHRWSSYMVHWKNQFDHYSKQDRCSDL

Regarding `Cc1cc(CSCCc2nc3ccccc3[nH]2)c(O)c(CSCCc2nc3ccccc3[nH]2)c1` [NSC620023], the “inhibition of AChE” value is “no inhibition of AChE at all”.

Source of the values: PMC6953623 (Bioorganic & medicinal chemistry letters, 2019).
